Test results taken from ChEMBL document CHEMBL4177665, “Inhibitory effect of moschamine isolated from Carthamus tinctorius on LPS-induced inflammatory mediators via AP-1 and STAT1/3 inactivation in RAW 264.7 macrophages” (Bioorg Med Chem Lett, 2017).
Activity calls are given as the source filed them. The calls are words filed in the database; no cut-off is given here.

Assays:
[1] = tested on: RAW264.7; assay: Antiinflammatory activity in mouse RAW264.7 cells assessed as inhibition of LPS-induced PGE2 production pretreated for 1 hr followed by LPS addition measured after 24 hrs; type: functional, cell-based
[2] = tested on: RAW264.7; assay: Antiinflammatory activity in mouse RAW264.7 cells assessed as inhibition of LPS-induced nitric oxide production measured after 24 hrs by Griess assay; type: functional, cell-based; conditions: RAW264.7, 24 h
[3] = tested on: RAW264.7; assay: Cytotoxicity against mouse RAW264.7 cells assessed as reduction in cell viability up to 200 uM measured after 24 hrs in presence of LPS by MTT assay; type: cell-based; conditions: raw264.7, 24 h
[4] = tested on: RAW264.7; assay: Cytotoxicity against mouse RAW264.7 cells assessed as reduction in cell viability up to 200 uM measured after 24 hrs in absence of LPS by MTT assay; type: cell-based; conditions: raw264.7, 24 h
[5] = target: Tyrosine-protein kinase JAK1 (Mus musculus) (UniProt P52332); assay: Inhibition of JAK1 in LPS-stimulated mouse RAW264.7 cells assessed as reduction in STAT3 phosphorylation at […] residue pretreated for 1 hr followed by LPS-stimulation by Western blot analysis; type: cell-based
Tyrosine-protein kinase JAK1 (Mus musculus), sequence (P52332 whole entry): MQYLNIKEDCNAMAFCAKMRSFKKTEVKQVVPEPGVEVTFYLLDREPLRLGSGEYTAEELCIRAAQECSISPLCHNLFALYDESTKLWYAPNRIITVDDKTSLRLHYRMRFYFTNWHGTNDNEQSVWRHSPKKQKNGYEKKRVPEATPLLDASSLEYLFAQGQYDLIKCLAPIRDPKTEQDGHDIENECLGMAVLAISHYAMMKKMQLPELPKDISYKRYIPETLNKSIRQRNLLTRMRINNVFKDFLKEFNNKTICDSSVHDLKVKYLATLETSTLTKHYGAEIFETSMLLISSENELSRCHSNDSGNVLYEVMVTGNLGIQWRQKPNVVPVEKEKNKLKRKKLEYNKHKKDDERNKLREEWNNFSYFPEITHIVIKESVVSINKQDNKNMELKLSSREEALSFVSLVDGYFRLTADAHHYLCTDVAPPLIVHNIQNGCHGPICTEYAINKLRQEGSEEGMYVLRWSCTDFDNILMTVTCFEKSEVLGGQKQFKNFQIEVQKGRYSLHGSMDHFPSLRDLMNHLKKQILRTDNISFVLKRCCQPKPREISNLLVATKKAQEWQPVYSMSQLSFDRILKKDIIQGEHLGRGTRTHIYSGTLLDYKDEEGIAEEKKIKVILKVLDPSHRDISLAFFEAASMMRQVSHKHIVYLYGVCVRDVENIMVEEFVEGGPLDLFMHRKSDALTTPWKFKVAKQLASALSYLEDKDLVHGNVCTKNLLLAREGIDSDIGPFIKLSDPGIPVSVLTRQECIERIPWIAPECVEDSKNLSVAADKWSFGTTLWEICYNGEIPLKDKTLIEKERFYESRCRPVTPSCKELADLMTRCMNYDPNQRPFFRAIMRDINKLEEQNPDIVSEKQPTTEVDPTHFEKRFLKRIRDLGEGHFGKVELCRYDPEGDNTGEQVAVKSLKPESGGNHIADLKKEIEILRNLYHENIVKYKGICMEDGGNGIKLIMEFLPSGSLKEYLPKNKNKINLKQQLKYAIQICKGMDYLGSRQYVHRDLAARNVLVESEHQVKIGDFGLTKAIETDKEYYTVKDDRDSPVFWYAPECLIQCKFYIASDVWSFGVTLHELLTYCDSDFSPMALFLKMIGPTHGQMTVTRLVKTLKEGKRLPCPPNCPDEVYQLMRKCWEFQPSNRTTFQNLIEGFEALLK

[6] = tested on: RAW264.7; assay: Antiinflammatory activity in mouse RAW264.7 cells assessed as inhibition of LPS-stimulated iNOS mRNA expression at 50 uM measured up to 12 hrs by SYBR green dye based RT-PCR analysis; type: functional, cell-based
[7] = tested on: RAW264.7; assay: Antiinflammatory activity in mouse RAW264.7 cells assessed as inhibition of LPS-stimulated iNOS expression at 12.5 to 50 uM pretreated for 1 hr followed by LPS-stimulation measured after 12 hrs by Western blot analysis; type: functional, cell-based
[8] = tested on: RAW264.7; assay: Antiinflammatory activity in mouse RAW264.7 cells assessed as inhibition of LPS-stimulated COX2 mRNA expression at 50 uM measured up to 12 hrs by SYBR green dye based RT-PCR analysis; type: functional, cell-based
[9] = tested on: RAW264.7; assay: Antiinflammatory activity in mouse RAW264.7 cells assessed as inhibition of LPS-induced nitric oxide production pretreated for 1 hr followed by LPS stimulation measured after 24 hrs by Griess assay; type: functional, cell-based
[10] = tested on: RAW264.7; assay: Antiinflammatory activity in mouse RAW264.7 cells assessed as inhibition of LPS-stimulated COX2 expression at 12.5 to 50 uM pretreated for 1 hr followed by LPS-stimulation measured after 12 hrs by Western blot analysis; type: functional, cell-based
[11] = tested on: RAW264.7; assay: Antiinflammatory activity in mouse RAW264.7 cells assessed as inhibition of LPS-stimulated mPGES1 expression at 12.5 to 50 uM pretreated for 1 hr followed by LPS-stimulation measured after 12 hrs by Western blot analysis; type: functional, cell-based
[12] = tested on: RAW264.7; assay: Antiinflammatory activity in mouse RAW264.7 cells assessed as inhibition of LPS-stimulated mPGES1 mRNA expression at 50 uM measured up to 12 hrs by SYBR green dye based RT-PCR analysis; type: functional, cell-based
[13] = tested on: RAW264.7; assay: Antiinflammatory activity in mouse RAW264.7 cells assessed as inhibition of LPS-stimulated IL-6 production pretreated for 1 hr followed by LPS addition measured after 24 hrs by enzyme immunoassay; type: functional, cell-based
[14] = tested on: RAW264.7; assay: Antiinflammatory activity in mouse RAW264.7 cells assessed as inhibition of LPS-stimulated IL1beta production in mouse RAW264.7 cells pretreated for 1 hr followed by LPS addition measured after 24 hrs by enzyme immunoassay; type: functional, cell-based
[15] = tested on: RAW264.7; assay: Antiinflammatory activity in mouse RAW264.7 cells assessed as inhibition of LPS-stimulated IL-6 production in mouse RAW264.7 cells at 50 uM pretreated for 1 hr followed by LPS addition measured after 24 hrs by enzyme immunoassay relative to control; type: functional
[16] = tested on: RAW264.7; assay: Antiinflammatory activity in mouse RAW264.7 cells assessed as inhibition of LPS-stimulated IL1beta production in mouse RAW264.7 cells at 50 uM pretreated for 1 hr followed by LPS addition measured after 24 hrs by enzyme immunoassay relative to control; type: functional
[17] = tested on: RAW264.7; assay: Antiinflammatory activity in mouse RAW264.7 cells assessed as inhibition of LPS-stimulated IL-6 mRNA expression at 50 uM measured up to 6 hrs by SYBR green dye based RT-PCR analysis; type: functional, cell-based
[18] = tested on: RAW264.7; assay: Antiinflammatory activity in mouse RAW264.7 cells assessed as inhibition of LPS-stimulated IL1beta mRNA expression at 50 uM measured up to 6 hrs by SYBR green dye based RT-PCR analysis; type: functional, cell-based
[19] = target: Transcription factor Jun (Homo sapiens) (UniProt P05412); assay: Inhibition of AP1 (unknown origin) expressed in LPS-stimulated mouse RAW264.7 cells at 12.5 to 50 uM pretreated for 1 hr followed by LPS-stimulation measured after 18 hrs by luciferase reporter gene assay; type: cell-based
Transcription factor Jun (Homo sapiens), sequence (P05412 whole entry): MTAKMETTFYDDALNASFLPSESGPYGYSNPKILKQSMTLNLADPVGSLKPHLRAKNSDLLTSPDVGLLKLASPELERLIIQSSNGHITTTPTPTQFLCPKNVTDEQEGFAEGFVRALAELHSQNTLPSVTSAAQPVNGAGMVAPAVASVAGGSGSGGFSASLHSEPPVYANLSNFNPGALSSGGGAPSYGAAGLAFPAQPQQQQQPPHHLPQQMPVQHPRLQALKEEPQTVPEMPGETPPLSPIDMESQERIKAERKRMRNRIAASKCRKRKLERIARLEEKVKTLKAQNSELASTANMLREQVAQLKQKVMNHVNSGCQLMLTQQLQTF

[20] = tested on: RAW264.7; assay: Inhibition of NFKappaB (unknown origin) expressed in LPS-stimulated mouse RAW264.7 cells by luciferase reporter gene assay; type: cell-based; conditions: Homo sapiens
[21] = target: Protein c-Fos (Mus musculus) (UniProt P01101); assay: Inhibition of LPS-induced c-FOS phosphorylation in mouse RAW264.7 cells at 50 uM pretreated for 1 hr followed by LPS-stimulation measured after 15 mins by Western blot analysis; type: cell-based
Protein c-Fos (Mus musculus), sequence (P01101 whole entry): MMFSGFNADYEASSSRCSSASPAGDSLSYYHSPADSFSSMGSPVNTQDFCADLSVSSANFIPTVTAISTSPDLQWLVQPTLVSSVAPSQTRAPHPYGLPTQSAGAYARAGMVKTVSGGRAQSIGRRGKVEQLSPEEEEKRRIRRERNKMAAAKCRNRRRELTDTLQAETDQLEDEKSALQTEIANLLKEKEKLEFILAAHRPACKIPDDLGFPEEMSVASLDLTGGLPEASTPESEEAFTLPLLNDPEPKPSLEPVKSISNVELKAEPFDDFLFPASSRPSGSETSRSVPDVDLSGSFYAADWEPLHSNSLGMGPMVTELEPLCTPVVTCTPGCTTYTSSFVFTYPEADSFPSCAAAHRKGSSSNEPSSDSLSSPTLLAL

[22] = tested on: RAW264.7; assay: Inhibition of LPS-induced c-FOS expression in mouse RAW264.7 cells at 50 uM pretreated for 1 hr followed by LPS-stimulation measured after 15 mins by Western blot analysis; type: functional, cell-based
[23] = target: Transcription factor Jun (Mus musculus) (UniProt P05627); assay: Inhibition of LPS-induced c-JUN phosphorylation in mouse RAW264.7 cells at 50 uM pretreated for 1 hr followed by LPS-stimulation measured up to 30 mins by Western blot analysis; type: cell-based
Transcription factor Jun (Mus musculus), sequence (P05627 whole entry): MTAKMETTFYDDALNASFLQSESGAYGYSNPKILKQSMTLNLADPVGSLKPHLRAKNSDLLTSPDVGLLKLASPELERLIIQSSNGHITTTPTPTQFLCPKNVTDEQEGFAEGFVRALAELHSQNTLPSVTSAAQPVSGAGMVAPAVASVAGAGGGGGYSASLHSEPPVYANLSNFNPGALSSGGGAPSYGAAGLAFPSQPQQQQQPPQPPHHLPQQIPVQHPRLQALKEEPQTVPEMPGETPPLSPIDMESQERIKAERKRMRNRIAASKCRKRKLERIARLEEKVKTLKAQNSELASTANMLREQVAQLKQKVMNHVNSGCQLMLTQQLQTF

[24] = tested on: RAW264.7; assay: Inhibition of LPS-induced c-JUN expression in mouse RAW264.7 cells at 50 uM pretreated for 1 hr followed by LPS-stimulation measured up to 30 mins by Western blot analysis; type: functional, cell-based
[25] = target: Tyrosine-protein kinase JAK1 (Mus musculus) (UniProt P52332); assay: Inhibition of JAK1 in LPS-stimulated mouse RAW264.7 cells assessed as reduction in STAT1 phosphorylation at S727 residue pretreated for 1 hr followed by LPS-stimulation by Western blot analysis; type: cell-based
[26] = target: Tyrosine-protein kinase JAK1 (Mus musculus) (UniProt P52332); assay: Inhibition of JAK1 in LPS-stimulated mouse RAW264.7 cells assessed as reduction in STAT1 phosphorylation at Y701 residue pretreated for 1 hr followed by LPS-stimulation by Western blot analysis; type: cell-based
[27] = target: MAP kinase p38 (Mus musculus) (UniProt P47811+O08911+Q9WUI1+Q9Z1B7); assay: Inhibition of LPS-induced p38 phosphorylation in mouse RAW264.7 cells at 50 uM pretreated for 1 hr followed by LPS-stimulation measured up to 30 mins by Western blot analysis; type: cell-based
[28] = tested on: RAW264.7; assay: Inhibition of LPS-induced ERK phosphorylation in mouse RAW264.7 cells at 50 uM pretreated for 1 hr followed by LPS-stimulation measured up to 30 mins by Western blot analysis; type: cell-based
[29] = tested on: RAW264.7; assay: Inhibition of LPS-induced JNK phosphorylation in mouse RAW264.7 cells at 50 uM pretreated for 1 hr followed by LPS-stimulation measured up to 30 mins by Western blot analysis; type: cell-based

SMILES: COc1cc(/C=C/C(=O)NCCc2c[nH]c3ccc(O)c(-c4c(O)ccc5[nH]cc(CCNC(=O)/C=C/c6ccc(O)cc6)c45)c23)ccc1O
- IC50 [1]: > 100 µM
- IC50 [2]: > 200 µM
- Activity [3]: Non-Toxic
- Activity [4]: Non-Toxic

SMILES: CC(=O)OC[C@H]1O[C@@H](O[C@H](C)[C@H]2C[C@H](O)[C@H]3[C@@H]4CCC5=CC(=O)CC[C@]5(C)[C@H]4CC[C@@]32C)[C@H](O)[C@@H](O)[C@@H]1O[C@@H]1O[C@H](CO)[C@@H](O)[C@H](O)[C@H]1O
- IC50 [1]: > 100 µM
- IC50 [2]: > 200 µM
- Activity [3]: Non-Toxic
- Activity [4]: Non-Toxic

SMILES: COc1cc(/C=C/C(=O)NCCc2c[nH]c3ccc(O)c(-c4c(O)ccc5[nH]cc(CCNC(=O)/C=C/c6ccc(O)c(OC)c6)c45)c23)ccc1O
- IC50 [1]: > 100 µM
- IC50 [2]: > 200 µM
- Activity [3]: Non-Toxic
- Activity [4]: Non-Toxic

SMILES: O=C(/C=C/c1ccc(O)cc1)NCCc1c[nH]c2ccc(O[C@@H]3O[C@H](CO)[C@@H](O)[C@H](O)[C@H]3O)cc12
- IC50 [1]: 89.8 µM
- IC50 [2]: 135 µM
- Activity [3]: Non-Toxic
- Activity [4]: Non-Toxic

SMILES: COc1ccc(C[C@H]2COC(=O)[C@]2(O)Cc2ccc(O[C@@H]3O[C@H](CO)[C@@H](O)[C@H](O)[C@H]3O)c(OC)c2)cc1OC
- IC50 [1]: > 100 µM
- IC50 [2]: > 200 µM
- Activity [3]: Non-Toxic
- Activity [4]: Non-Toxic

SMILES: O=C(/C=C/c1ccc(O)cc1)NCCc1c[nH]c2ccc(O)c(-c3c(O)ccc4[nH]cc(CCNC(=O)/C=C/c5ccc(O)cc5)c34)c12
- IC50 [1]: > 100 µM
- IC50 [2]: > 200 µM
- Activity [3]: Non-Toxic
- Activity [4]: Non-Toxic

SMILES: COc1cc(C[C@@H](CO)[C@H](CO)Cc2ccc(O)c(OC)c2)ccc1O [(+)-SECOISOLARICIRESINOL]
- IC50 [1]: > 100 µM
- IC50 [2]: > 200 µM
- Activity [3]: Non-Toxic
- Activity [4]: Non-Toxic

SMILES: CC(=N)NCCCC[C@H](N)C(=O)O [L-NIL]
- IC50 [2]: 28.3 µM

SMILES: COc1cc(/C=C/C(=O)NCCc2c[nH]c3ccc(O)cc23)ccc1O [N-FERULOYL SEROTONIN]
- inhibition [5]: Dose-dependent effect
- inhibition [6]: Active
- inhibition [7]: Active
- inhibition [8]: Active
- IC50 [1]: 14.7 µM
- inhibition [1]: Dose-dependent effect
- IC50 [2]: 123 µM
- Activity [3]: Non-Toxic
- inhibition [9]: Dose-dependent effect
- inhibition [10]: Active
- inhibition [11]: Active
- inhibition [12]: Active
- inhibition [13]: Dose-dependent effect
- inhibition [14]: Dose-dependent effect
- inhibition at 50 µM [15]: 25.1%
- inhibition at 50 µM [16]: 52.2%
- inhibition [17]: Active
- inhibition [18]: Active
- inhibition [19]: Active
- inhibition [20]: inactive
- inhibition [21]: Active
- inhibition [22]: Active
- inhibition [23]: inactive
- inhibition [24]: inactive
- inhibition [25]: Dose-dependent effect
- inhibition [26]: Dose-dependent effect
- inhibition [27]: Active
- inhibition [28]: Active
- inhibition [29]: inactive
- Activity [4]: Non-Toxic

SMILES: O=C(/C=C/c1ccc(O)cc1)NCCc1c[nH]c2ccc(O)cc12 [N-P-COUMAROYL SEROTONIN]
- IC50 [1]: 43.2 µM
- IC50 [2]: 164 µM
- Activity [3]: Non-Toxic
- Activity [4]: Non-Toxic
